Values quoted from earlier work in publication PMC7732027 (Bioorganic & medicinal chemistry letters, 2019).

System: A/H3N2 viruses with PA I38T/F substitutions
Details: cited from earlier work

For `COC(=O)OCOc1c2n(ccc1=O)N([C@@H]1c3ccccc3SCc3c1ccc(F)c3F)[C@@H]1COCCN1C2=O` [BXM, baloxavir marboxil], the “reduction in BXM susceptibility” value is given as “more than 10 fold”.
